From patent US8609173B2, “Compositions comprising sweetness enhancers and methods of making them” (Senomyx Inc., priority 2008, dated 2013)

Assays:
External panelists = assay: Line scale (15-point sucrose equivalence) sensory test, Example 5, sucrose or LSB, pH 7.1; assay type: in vivo, Human
Method: (§1) Several types of sensory tests were used to determine the efficacy of 3-(4-amino-2,2-dioxide-1H-benzo[c][1,2,6]thiadiazin-5-yloxy)-2′,2′-dimethyl-N-propylpropanamide 3-(4-amino-2,2-dioxide-1H-benzo[c][1,2,6]thiadiazin-5-yloxy)-2′,2′-dimethyl-N-propylpropanamide in enhancing the sweetness of sucrose. Two types of tests were conducted: • 1) Sensory scaling tests were performed using a 15-point percent sucrose equivalence scale for sweetness in order to evaluate sweetness enhancement 3-(4-amino-2,2-dioxide-1H-benzo[c][1,2,6]thiadiazin-5-yloxy)-2′,2′-dimethyl-N-propylpropanamide 3-(4-amino-2,2-dioxide-1H-benzo[c][1,2,6]thiadiazin-5-yloxy)-2′,2′-dimethyl-N-propylpropanamide in sucrose or in fructose. • 2) Paired comparison tests (2-alternative forced choice difference tests) were used to determine sweetness equivalence for solutions of sucrose vs. 3-(4-amino-2,2-dioxide-1H-benzo[c][1,2,6]thiadiazin-5-yloxy)-2′,2′-dimethyl-N-propylpropanamide 3-(4-amino-2,2-dioxide-1H-benzo[c][1,2,6]thiadiazin-5-yloxy)-2′,2′-dimethyl-N-propylpropanamide or buffer vs. 3-(4-amino-2,2-dioxide-1H-benzo[c][1,2,6]thiadiazin-5-yloxy)-2′,2′-dimethyl-N-propylpropanamide 3-(4-amino-2,2-dioxide-1H-benzo[c][1,2,6]thiadiazin-5-yloxy)-2′,2′-dimethyl-N-propylpropanamide. Stimuli:
Tests were performed with sucrose or fructose. The sweetener was evaluated with and/or without 3-(4-amino-2,2-dioxide-1H-benzo[c][1,2,6]thiadiazin-5-yloxy)-2′,2′-dimethyl-N-propylpropanamide 3-(4-amino-2,2-dioxide-1H-benzo[c][1,2,6]thiadiazin-5-yloxy)-2′,2′-dimethyl-N-propylpropanamide at the appropriate concentration(s).
3-(4-amino-2,2-dioxide-1H-benzo[c][1,2,6]thiadiazin-5-yloxy)-2′,2′-dimethyl-N-propylpropanamide was prepared as a concentrated stock solution in ethanol to ensure dissolution of the 3-(4-amino-2,2-dioxide-1H-benzo[c][1,2,6]thiadiazin-5-yloxy)-2′,2′-dimethyl-N-propylpropanamide. Therefore, all taste solutions contained ethanol in the final solution. Samples without 3-(4-amino-2,2-dioxide-1H-benzo[c][1,2,6]thiadiazin-5-yloxy)-2′,2′-dimethyl-N-propylpropanamide also contained an equivalent concentration of ethanol. For samples involving 3-(4-amino-2,2-dioxide-1H-benzo[c][1,2,6]thiadiazin-5-yloxy)-2′,2′-dimethyl-N-propylpropanamide at 5-10 ppm (up to 28 μM), the final concentration of ethanol was 0.2%; 30-40 μM, 0.4% ethanol; 50 μM, 0.5% ethanol; and 100 μM, 1% ethanol.
Taste samples were also prepared in low sodium phosphate buffer (pH 7.1; “LSB”) lacking sucrose to evaluate the taste of 3-(4-amino-2,2-dioxide-1H-benzo[c][1,2,6]thiadiazin-5-yloxy)-2′,2′-dimethyl-N-propylpropanamide alone. Low sodium phosphate buffer consists of 0.3 mM KCl, 0.5 mM Na2HPO4, and 0.175 mM KH2PO4.
In scaling test situations, the samples were rated on a 15-point scale for sweetness, ranging from 0=0% sucrose to 15=15% sucrose. To evaluate attributes other than sweetness, references are used for training and are prepared according to the table below. Note that each reference was given a score of 5 on the 15-point scale.
External panelists were used for the tests. The exact number of panelists is reported with test results. Subjects were instructed not to eat or drink anything (except water) for at least 1 hour prior to the test.
Panelists rinsed their mouths with water prior to starting any test. Samples were presented to panelists in a randomized, counterbalanced order. Panelists rinsed with water and had up to a 1 minute delay to clear the mouth of any tastes after each evaluation. Two replicates of each test were performed, unless otherwise noted.
In scaling tests, panelists rate samples monadically for the attributes listed above (see Stimuli). In paired comparison tests, panelists taste pairs of solutions and indicate which sample is perceived to be sweeter.
Attributes of interest are reported for each scaling taste test.
Panelists rinsed their mouths with water prior to starting any test. Samples were presented to panelists in a randomized, counterbalanced order. […]

Panelists = assay: Paired comparison taste test, Example 7, sucrose or fructose solutions; assay type: in vivo, Human; conditions: 1% Sucrose chosen, vs 28 μM (9.9 ppm) compound; n = 32
Method: as §1
Panelists evaluated two solutions in a paired comparison taste test procedure. They were instructed to select the sweeter of the two samples. They were also asked to comment on how difficult it was to tell the difference in sweetness between both samples and if any off tastes were perceived.
Panelists evaluated two solutions in a paired comparison taste test procedure and were instructed to select the sweeter of the two samples.

With OC[C@H]1O[C@@](CO)(O[C@H]2O[C@H](CO)[C@@H](O)[C@H](O)[C@H]2O)[C@@H](O)[C@@H]1O [Sucrose, sucrose] the “Average Sweetness” value (External panelists; 1% Sucrose, Table 25, n = 30) was 1.2, the “Average Bitterness” value (External panelists; 1% Sucrose, Table 26, n = 30) was 0.4 and the “Average Sweetness” value (External panelists; 2% Sucrose, Table 20, n = 30) was 2.3. For the same molecule, the “Average Bitterness” value (External panelists; 2% Sucrose, Table 21, n = 30) was 0.3, the “Average Sweetness” value (External panelists; 2% Sucrose, Table 22, n = 14) was 2.3 and the “Average Sweetness” value (External panelists; 2% Sucrose, Table 25, n = 30) was 2.2. The “Average Bitterness” value (External panelists; 2% Sucrose, Table 26, n = 30) was 0.3, the “Average Sweetness” value (External panelists; 2% Sucrose, Table 27, n = 28) was 2.0 and the “Average Bitterness” value (External panelists; 2% Sucrose, Table 28, n = 28) was 0.1. For the same molecule, the “Average Sweetness” value (External panelists; 4% Sucrose, Table 20, n = 30) was 4.2, the “Average Bitterness” value (External panelists; 4% Sucrose, Table 21, n = 30) was 0.2 and the “Average Sweetness” value (External panelists; 4% Sucrose, Table 22, n = 14) was 4.3. For the same molecule, the “Average Sweetness” value (External panelists; 4% Sucrose, Table 25, n = 30) was 4.4, the “Average Bitterness” value (External panelists; 4% Sucrose, Table 26, n = 30) was 0.3 and the “Average Sweetness” value (External panelists; 4% Sucrose, Table 27, n = 28) was 4.2. For the same molecule, the “Average Bitterness” value (External panelists; 4% Sucrose, Table 28, n = 28) was 0.1, the “Average Sweetness” value (External panelists; 6% Sucrose, Table 16, n = 15) was 6.3 and the “Average Bitterness” value (External panelists; 6% Sucrose, Table 17, n = 15) was 0.3. For the same molecule, the “Average Sweetness” value (External panelists; 6% Sucrose, Table 18, n = 24) was 6.2, the “Average Bitterness” value (External panelists; 6% Sucrose, Table 19, n = 24) was 0.2 and the “Average Sweetness” value (External panelists; 6% Sucrose, Table 20, n = 30) was 5.8. For the same molecule, the “Average Bitterness” value (External panelists; 6% Sucrose, Table 21, n = 30) was 0.2, the “Average Sweetness” value (External panelists; 6% Sucrose, Table 22, n = 14) was 5.7 and the “Average Sweetness” value (External panelists; 6% Sucrose, Table 23, n = 30) was 6.7. The “Average Bitterness” value (External panelists; 6% Sucrose, Table 24, n = 30) was 0.4, the “Average Sweetness” value (External panelists; 6% Sucrose, Table 25, n = 30) was 6.4 and the “Average Bitterness” value (External panelists; 6% Sucrose, Table 26, n = 30) was 0.6. The “Average Sweetness” value (External panelists; 6% Sucrose, Table 27, n = 28) was 6.1, the “Average Bitterness” value (External panelists; 6% Sucrose, Table 28, n = 28) was 0.1 and the “Average Sweetness” value (External panelists; 8% Sucrose, Table 16, n = 15) was 7.7. The “Average Bitterness” value (External panelists; 8% Sucrose, Table 17, n = 15) was 0.1, the “Average Sweetness” value (External panelists; 8% Sucrose, Table 18, n = 24) was 8.3 and the “Average Bitterness” value (External panelists; 8% Sucrose, Table 19, n = 24) was 0.1. The “Average Sweetness” value (External panelists; 8% Sucrose, Table 23, n = 30) was 8.3, the “Average Bitterness” value (External panelists; 8% Sucrose, Table 24, n = 30) was 0.4 and the “Average Sweetness” value (External panelists; 8% Sucrose, Table 25, n = 30) was 8.7. For the same molecule, the “Average Bitterness” value (External panelists; 8% Sucrose, Table 26, n = 30) was 0.3, the “Average Sweetness” value (External panelists; 8% Sucrose, Table 27, n = 28) was 8.4 and the “Average Bitterness” value (External panelists; 8% Sucrose, Table 28, n = 28) was 0.2. For the same molecule, the “Average Sweetness” value (External panelists; 9% Sucrose, Table 16, n = 15) was 9.0, the “Average Bitterness” value (External panelists; 9% Sucrose, Table 17, n = 15) was 0.1 and the “Average Sweetness” value (External panelists; 9% Sucrose, Table 18, n = 24) was 9.3. For the same molecule, the “Average Bitterness” value (External panelists; 9% Sucrose, Table 19, n = 24) was 0.1, the “Average Sweetness” value (External panelists; 10% Sucrose, Table 16, n = 15) was 9.2 and the “Average Bitterness” value (External panelists; 10% Sucrose, Table 17, n = 15) was 0.2. The “Average Sweetness” value (External panelists; 10% Sucrose, Table 18, n = 24) was 9.8, the “Average Bitterness” value (External panelists; 10% Sucrose, Table 19, n = 24) was 0.1 and the “Average Sweetness” value (External panelists; 10% Sucrose, Table 23, n = 30) was 10.3. For the same molecule, the “Average Bitterness” value (External panelists; 10% Sucrose, Table 24, n = 30) was 0.2, the “Average Sweetness” value (External panelists; 10% Sucrose, Table 25, n = 30) was 10.5 and the “Average Bitterness” value (External panelists; 10% Sucrose, Table 26, n = 30) was 0.3. For the same molecule, the “Average Sweetness” value (External panelists; 10% Sucrose, Table 27, n = 28) was 9.6, the “Average Bitterness” value (External panelists; 10% Sucrose, Table 28, n = 28) was 0.1 and the “Average Sweetness” value (External panelists; 12% Sucrose, Table 18, n = 24) was 11.1. For the same molecule, the “Average Bitterness” value (External panelists; 12% Sucrose, Table 19, n = 24) was 0.0, the “Average Sweetness” value (External panelists; 12% Sucrose, Table 23, n = 30) was 11.2 and the “Average Bitterness” value (External panelists; 12% Sucrose, Table 24, n = 30) was 0.3. The “Sample selected as more sweet by panelists, Total” value (Panelists) was 28.
